system: clathrin-dependent pathway or macro-pinocytosis pathway; experiment: Effect of endocytosis pathway inhibitors on BTNP accumulation in cytoplasm in response to TTFields; type: cell-based; conditions: specific inhibitors of clathrin-dependent or macro-pinocytosis pathway
Text: Nanoparticles (NPs) internalization into cells is known to be dependent on particle size and its zeta potential. NPs under 200 nm can be engulfed by cancer cells through clathrin-dependent pathway or macro-pinocytosis pathway. […] The data herein evidences that increased membrane permeability by TTFields can induce BTNP accumulation in cytoplasm of cancer cells.

| SMILES | accumulation of BTNPs in cytoplasm in response to TTFields |
| --- | --- |
| CN(C)CCCN1c2ccccc2Sc2ccc(Cl)cc21 [chlorpromazine] | did not modulate |
| C=C1[C@@H](C)[C@H]2[C@H](Cc3ccccc3)NC(=O)[C@]23[C@H](OC(C)=O)/C=C/[C@@](C)(O)C(=O)[C@@H](C)C/C=C/[C@H]3[C@@H]1O [cytochalasin D] | did not modulate |
| N=C(N)NC(=O)c1nc(Cl)c(N)nc1N [amiloride] | did not modulate |

— US12397167B2, “Compositions and methods of altering the electric impedance to an alternating electric field” (NOVOCURE GMBH, priority 2019, dated 2025)
